# Source: ChEMBL document CHEMBL1128865, “A systematic study of P1P3 spanning sidechains for the inhibition of HIV-1 protease” (Bioorg Med Chem Lett, 1995)
# System: CCRF-CEM
# Assay: Concentration required for inhibitory activity against CEM cells in a whole cell assay
# Type: functional
# Conditions: Homo sapiens, read-out: ED50 (the source's name)
row,SMILES,EC50 [nM]
1,CC(C)(C)NC(=O)[C@@H]1C[C@@H]2CCCC[C@@H]2CN1C[C@@H](O)[C@H](Cc1ccccc1)NC(=O)[C@H](CC(N)=O)NC(=O)c1ccc2ccccc2n1,1.5
2,CC(C)(C)NC(=O)[C@@H]1C[C@@H]2CCCC[C@@H]2CN1C[C@@H](O)[C@H](CSc1ccc2ccccc2c1)NC(=O)[C@H](CC(N)=O)NC(=O)c1ccc2ccccc2n1,1.4
3,CC(C)(C)NC(=O)[C@@H]1C[C@@H]2CCCC[C@@H]2CN1C[C@@H](O)[C@H](CSc1ccccc1)NC(=O)[C@H](CC(N)=O)NC(=O)c1ccc2ccccc2n1,1.3

# System: CCRF-CEM
# Assay: Concentration required for inhibitory activity against CEM cells in a whole cell assay.
# Type: functional
# Conditions: Homo sapiens, read-out: ED50 (the source's name)
row,EC50 [nM],SMILES
1,23,CC(C)(C)NC(=O)c1ccccc1C[C@@H](O)[C@H](Cc1ccccc1)NC(=O)[C@H](CC(N)=O)NC(=O)c1ccc2ccccc2n1

# Target: Human immunodeficiency virus type 1 protease (Human immunodeficiency virus 1, UniProt Q72874)
# Assay: Inhibitory activity against HIV-1 protease
# Conditions: not given
row,SMILES,IC50 [nM]
1,CC(C)(C)NC(=O)c1ccccc1C[C@@H](O)[C@H](CSc1ccccc1)NC(=O)[C@H](CC(N)=O)NC(=O)OCc1ccccc1,14
2,CC(C)(C)NC(=O)c1ccccc1C[C@@H](O)[C@H](CSc1ccccc1)NC(=O)[C@H](CC(N)=O)NC(=O)c1ccc2ccccc2n1,1.1
3,CC(C)(C)NC(=O)c1ccccc1C[C@@H](O)[C@H](CSc1ccccc1)NC(=O)CCC(N)=O,> 150
4,CC(C)(C)NC(=O)c1ccccc1C[C@@H](O)[C@H](CSc1ccc2ccccc2c1)NC(=O)[C@H](CC(N)=O)NC(=O)c1ccc2ccccc2n1,< 0.25
5,CC(C)(C)NC(=O)c1ccccc1C[C@@H](O)[C@H](CSc1ccc2ccccc2c1)NC(=O)[C@H](CC(N)=O)NC(=O)OCc1ccccc1,1.5
6,CC(C)(C)NC(=O)[C@@H]1C[C@@H]2CCCC[C@@H]2CN1C[C@@H](O)[C@H](CSc1ccc2ccccc2c1)NC(=O)[C@H](CC(N)=O)NC(=O)c1ccc2ccccc2n1,< 0.25
7,CC(=O)N[C@@H](CC(N)=O)C(=O)N[C@@H](CSc1ccc2ccccc2c1)[C@H](O)Cc1ccccc1C(=O)NC(C)(C)C,1.1
8,CC(=O)N[C@@H](CC(N)=O)C(=O)N[C@@H](CSc1ccccc1)[C@H](O)Cc1ccccc1C(=O)NC(C)(C)C,19
9,CC(C)(C)NC(=O)[C@@H]1C[C@@H]2CCCC[C@@H]2CN1C[C@@H](O)[C@H](CSc1ccccc1)NC(=O)[C@H](CC(N)=O)NC(=O)c1ccc2ccccc2n1,1.5
10,CC(C)(C)NC(=O)c1ccccc1C[C@@H](O)[C@H](CSc1ccc2ccccc2c1)NC(=O)CCC(N)=O,> 80
